In article PMC5889558, “The inhibition of human lung fibroblast proliferation and differentiation by Gs-coupled receptors is not predicted by the magnitude of cAMP response” (Respiratory Research, 2018):
Like-named read-outs stand apart in the source and are kept apart here.

Legend:
Format in all cases: cell-based
[1] = system: human lung fibroblasts (HLF); assay: HLF proliferation by BrdU incorporation (DELFIA), driven by FBS or PDGF; details: Homo sapiens, Fibroblast, inhibition of BrdU incorporation, 24 h, NC = not calculated due to incomplete curve; for EC50: mean ± SEM
Procedure: Proliferation of HLF was measured by incorporation of bromodeoxyuridine (BrdU). HLF were seeded overnight at 4000 cells/well in 96-well black ViewPlates, before being starved for 24 h in culture medium devoid of FBS. Proliferation was measured after incubation with a range of concentrations of FBS or PDGF, in DMEM supplemented with 0.1% w/v HSA, for 24 h.
For anti-remodelling assays using BrdU incorporation, cells were incubated for 24 h with a range of concentrations of test compounds in the presence of near maximal concentrations of FBS or PDGF in DMEM supplemented with 0.1% w/v HSA. Proliferation was assessed using the DELFIA BrdU incorporation assay kit following manufacturer protocol. Fluorescence was measured using a Packard EnVision plate reader. To account for the inter-assay variation in levels of proliferation in each experiment, data were normalized to the PDGF or FBS response.

[2] = system: human lung fibroblasts (HLF); assay: Fibroblast to myofibroblast transdifferentiation (FMT), αSMA immunofluorescence, TGFβ-driven; details: 48 h, TGFβ 0.3 ng/mL
Procedure: To assess the differentiation of fibroblasts to the myofibroblast phenotype, immunofluorescence was used to monitor increases in α smooth muscle actin (αSMA). HLF were seeded overnight at 1000 cells/well in 384-well black clear bottom plates, before being starved for 24 h growth medium devoid of FBS.
For anti-remodelling assays using FMT, cells were incubated for 48 h with a range of concentrations of test compounds and incubated for 48 h, at 37°C, 5% CO2 in the presence of a near maximal concentration of TGFβ (0.3 ng/mL), to promote differentiation in DMEM supplemented with 0.1% w/v HSA. Following stimulation, cells were fixed in 4% paraformaldehyde, washed 3× in PBS (with Ca^2+/Mg^2+), and incubated with permeabilising blocking buffer (dPBS (with Ca^2+/Mg^2+), 10% FBS (v/v), 0.1% Triton X-100 (v/v)) for 1 h at 37°C. Wells were then washed 3× in wash buffer (Tris Buffered Saline (TBS), 0.05% (v/v) Tween-20) and incubated with mouse anti-α SMA (1:1000 dilution in permeabilising blocking buffer) for 1 h at room temperature, with gentle shaking. Following 3× wash in wash buffer, wells were incubated with blocking buffer containing Hoechst to stain for nuclear DNA (2 μM), and FITC-conjugated Affini-pure goat […] IgG (1:1000 dilution in blocking buffer) for 30 min at 37°C. Fluorescence was then quantified on a widefield ImageXpress Micro microscope, with a Plan Fluor 20X objective, DAPI filter cube (excitation 400–418 nm, emission 435–470 nm), 50 ms exposure time for nuclei, and FITC filter cube (excitation 467–498 nm, emission 513–556 nm), 200 ms exposure time for αSMA.
To quantify increases in αSMA fluorescence, a standard Multi-Wavelength Cell Scoring algorithm was used in MetaXpress 5.3 software (Molecular Devices, California, USA). To account for the inter-assay variation in levels of αSMA expression produced in each experiment, data were normalized to the response to TGFβ.

[3] = system: human lung fibroblasts (HLF); assay: PDGF-mediated ERK phosphorylation (pERK imaging); details: 30 min pre-incubation, 3 ng/mL PDGF for 10 min
Procedure: HLF were seeded overnight at 6000 cells/well in 96-well black clear bottom plates then starved for 24 h in the growth medium devoid of all additives. […] Fluorescence was then quantified on the InCell2000, using DAPI settings to visualize nuclei (0.1 s exp) and FITC settings for pERK (2 s exp). To quantify levels of pERK fluorescence, a standard Multi-Target Analysis algorithm was used in the INCell Analyzer Workstation (v3.7.1). To account for the inter-assay variation in levels of ERK phosphorylation produced in each experiment, data were normalized to the EC80 PDGF response.

[4] = system: human lung fibroblasts (HLF); assay: Cell viability assay, caspase-3/7 as marker of apoptosis; details: human, 24 h
Procedure: Cell viability was measured using caspase-3/7 expression as a marker of apoptosis after treatment for 24 h with test compounds. HLF were seeded overnight at 6,000 cells/well in 96-well black ViewPlates, before being starved for 24 hours in culture medium devoid of FBS. Cells were incubated for 24 hours in the presence of test compounds at the top concentrations used in the proliferation assays, or in the presence of 100 nM staurosporine to induce apoptosis.
The presence of the apoptotic marker caspase-3/7 was detected by incubating cells with 8 μM CellEvent™ Caspase-3/7 Red Detection Reagent in dPBS with 5 % FBS, for 30 minutes at 37°C. […] Images were analyzed using a multi wavelength cell scoring algorithm within the MetaXpress 5.3 software, which measures cell number using stained nuclei, and percent of these cells positive for caspase-3/7 from Cy5 readouts. To account for the inter-assay variation in levels of caspase 3/7 detected in each experiment, data were normalized to the staurosporine response.
Statistical significance across treatment groups was determined by using the one-way ANOVA with Dunnett’s multiple-comparison post hoc test.

[5] = system: human lung fibroblasts (HLF); assay: Fibroblast to myofibroblast transdifferentiation (FMT), αSMA immunofluorescence, TGFβ-driven; details: data not shown

Which results are given for `C=C[C@@]1(C)CC(=O)[C@]2(O)[C@@]3(C)[C@@H](O)CCC(C)(C)[C@@H]3[C@H](O)[C@H](OC(C)=O)[C@@]2(C)O1` [Forskolin]?
Emax ([1]; EC80 PDGF, percentage of maximal proliferation observed with PDGF, read-out: Proliferation vs PDGF Emax (% max)): 90.8 ± 9.12%; EC50 ([1]; EC80 concentration of PDGF, read-out: Proliferation vs PDGF pEC50 (converted)): 1.05 µM; EC50 ([1]; EC80 concentration of serum, read-out: Proliferation vs serum pEC50 (converted)): 5.25 µM; Emax ([1]; EC80 serum, percentage of maximal proliferation observed with serum, read-out: Proliferation vs serum Emax (% max)): 74 ± 6.7%; inhibition of TGFβ-driven FMT (in words) [2]: completely inhibit FMT; inhibition of PDGF-mediated ERK phosphorylation (in words) [3]: inhibited PDGF-mediated ERK phosphorylation; % cells positive for caspase-3/7, 1:10 dilution ([4]; 3 μM): 0.61 ± 0.15%; % cells positive for caspase-3/7, Top conc ([4]; 30 μM): 1.26 ± 0.35%

With Transforming growth factor β [TGFβ] as the compound, how does the “EC50 for promoting FMT” value [5] read?
The value was 0.07 ± 0.01 ng/mL.
